Series [1] can be described thus: Cell viability, MTT test on normal cell line. The format is cell-based. Particulars: human, MCF-10A mammary gland epithelial cells (normal cell line), MCF-10A normal cells, 4 days incubation. Here is the method:
The human mammary gland epithelial (MCF-10A) normal cell line was used to test the viability of novel compounds 9a-o ([Mahmoud et al., 2022]; [Mekheimer et al., 2022]). After 4 days of incubation on MCF-10A cells, the cell viability of compounds 9a-o was determined using the MTT test.
The human mammary gland epithelial (MCF-10A) normal cell line was used to test the viability of compounds 9a-o ([Mahmoud et al., 2022]; [Mekheimer et al., 2022]). Refer to Supplementary Appendix A (Supplementary Material) for more details.
4.2. Biological evaluation
4.2.1. Cytotoxic activity using MTT Assay and evaluation of IC50
MTT assay was carried out to study the effect of compounds on mammary epithelial cells (MCF-10A). The medium in which cells were propagated contained Dulbecco's modified Eagle's medium (DMEM)/ Ham's F-12 medium (1:1) supplemented with epidermal growth factor (20 ng/mL), hydrocortisone (500 ng/mL), insulin (10 μg/mL), 2 mM glutamine and 10% foetal calf serum.
After every 2-3 days, the cells were passaged using trypsin ethylenediamine tetra acetic acid (EDTA). The cells were seeded at a density of 10^4 cells mL-1 in flat-bottomed culture plates containing 96 wells each. After 24 h, medium was removed from the plates and the compounds in (in 0.1% DMSO) were added (in 200 μL medium to yield a final concentration of 0.1% v/v) to the wells of plates. A single compound was designated with four wells followed by incubation of plates for 96h at 37°C. After incubation, medium was removed completely from the plates followed by addition of MTT (0.4 mg/mL in medium) to each well and subsequent incubation of plates for 3h. MTT (along with the medium) was removed and DMSO (150μL) was added to each well of the culture plates, followed by vertexing and subsequent measurement of absorbance (at 540 nm) using microplate reader. The data are shown as percentage inhibition of proliferation in comparison with controls containing 0.1% DMSO.
On the technique in general: Formazan colour is commonly taken as a measure of viable cells.

Series [2] has as its system pancreatic cancer (Panc-1) cell line. Briefly: Antiproliferative MTT assay, Panc-1. Particulars: Homo sapiens, Panc-1 pancreatic cancer cells, read-out: Antiproliferative activity IC50 ± SEM Panc-1. The format is cell-based. Here is the method: (§1) 4.2.1.2. Assay for antiproliferative effect
(§2) To explore the antiproliferative potential of compounds MTT assay was performed according to previously reported procedure using different cell lines to explore the antiproliferative potential of […]
(§3) calculate the total nuclear DNA, a fluorescent dye (propidium iodide, PI) is used which can attach to the DNA, thus offering a quick and precise technique. PI cannot pass through the cell membrane and its signal intensity can be considered as directly proportional to quantity of cellular DNA.
(§4) Cells whose cell membranes are damaged or have changed permeability are counted as dead ones.
(§5) The assay was performed by seeding the cells of different cell lines at a density of 3000-7500 cells/well (in 200µl medium) in culture plates followed by incubation for 24h at 37 °C in humidified 5% CO2/95% air atmospheric conditions. The medium was removed; the compounds were added to the plates at 10 µM concentrations (in 0.1% DMSO) in triplicates, followed by incubation for 48 h. DMSO (0.1%) was used as control. After incubation, medium was removed […]
(§6) 80 °C, the plates were allowed to freeze for 24 h, followed by thawing at 25 °C. […]
(§7) (Polar-Star BMG Tech) was used to record the readings at excitation and emission wavelengths of 530 and 620 nm for each well. The percentage cytotoxicity of compounds was calculated using […]
(§8) Where ATC= Absorbance of treated cells and AC= Absorbance of control. Erlotinib was used as positive control in the assay.

In series [3] the test system is breast cancer (MCF-7) cell line. Nature of the series: Antiproliferative MTT assay, MCF-7. The series is classed as cell-based. To be noted: Homo sapiens, MCF7, MCF-7 breast cancer cells, read-out: Antiproliferative activity IC50 ± SEM MCF-7. Here is the method: as §1, §2, §3, §4, §5, §6, §7, §8
Series [4] has as its system four human cancer cell lines (HT-29, Panc-1, A-549, MCF-7). Nature of the series: Average antiproliferative activity (GI50) over four cancer cell lines. The format is cell-based. Particulars: average IC50 against the four cancer cell lines. How it is done:
as §1, §2, §3, §4, §5, §6, §7, §8

For series [5], the system named is colon cancer (HT-29) cell line. Nature of the series: Antiproliferative MTT assay, HT-29. The format is cell-based. To be noted: Homo sapiens, HT-29 colon cancer cells, read-out: Antiproliferative activity IC50 ± SEM HT-29.
Series [6] relates to lung cancer (A-549) cell line. Briefly: Antiproliferative MTT assay, A-549. The format is cell-based. To be noted: Homo sapiens, A549, A-549 lung cancer cells, read-out: Antiproliferative activity IC50 ± SEM A-549. Here is the method:
as §1, §2, §3, §4, §5, §6, §7, §8

As a reminder, the viability is a per cent measure of how many cells are alive, often set against a control. Lower therefore signals more harm to the cells. A word on the IC50: it is the point on the concentration scale where inhibition reaches its midpoint. Broadly, the GI50 is the concentration giving 50% growth inhibition. A higher GI50 goes with less potent growth inhibition. The term melting point denotes the temperature of the solid-liquid transition.

With `COc1ccc(-c2noc(CSc3nc4ccccc4c(=O)n3-c3ccc(C)cc3)n2)cc1` [Compound 9f, 2-((3-(4-Methoxyphenyl)-1,2,4-oxadiazol-5-yl)methylthio)-3-p-tolylquinazolin-4(3H)-one], the melting point lay within 165 to 167 °C. This compound also gave a viability at 96 h, 50 µM in series [1] of 92%. The IC50 in series [2] is 52 ± 5 nM. In series [3], the half-inhibitory concentration (IC50) was found to be 53 ± 5 nM. Further, in series [4], the 50% growth inhibitory concentration (GI50) amounted to 52 nM. Moreover, the IC50 in series [5] is 52 ± 5 nM. Moreover, the IC50 in series [6] is 50 ± 4 nM.
`Cc1ccc(-n2c(SCc3nc(-c4ccc(Cl)cc4)no3)nc3ccccc3c2=O)cc1` [Compound 9e, 2-((3-(4-Chlorophenyl)-1,2,4-oxadiazol-5-yl)methylthio)-3-p-tolylquinazolin-4(3H)-one] returned a melting point of 156 to 158 °C. For the same compound, the viability at 96 h, 50 µM in series [1] was found to be 91%. Further, the IC50 in series [2] was 42 ± 4 nM. In addition, the IC50 in series [3] stood at 44 ± 4 nM. Also, the GI50 in series [4] worked out at 42 nM. Besides, the IC50 in series [5] was found to be 42 ± 4 nM. In addition, the IC50 in series [6] turned out to be 40 ± 3 nM.
With `C#Cc1cccc(Nc2ncnc3cc(OCCOC)c(OCCOC)cc23)c1` [Erlotinib, reference compound], the IC50 in series [2] turned out to be 30 ± 3 nM; in series [3] it was 40 ± 3 nM; in series [5], 30 ± 3 nM; in series [6] it was 30 ± 3 nM. It took 33 nM to inhibit growth in series [4] by half (GI50).
As for `O=c1c2ccccc2nc(SCc2nc(-c3ccccc3)no2)n1-c1ccccc1` [Compound 9a, 2-((3-Phenyl-1,2,4-oxadiazol-5-yl)methylthio)-3-phenylquinazolin-4(3H)-one], the melting point was 162 to 164 °C. In series [1], this compound had a viability at 96 h, 50 µM of 90%. Moreover, in series [2], the IC50 is 48 ± 4 nM. The IC50 in series [3] is 50 ± 4 nM. For the same compound, in series [4], it took 48 nM to inhibit growth by half (GI50). The IC50 in series [5] came out at 48 ± 4 nM. Moreover, the IC50 in series [6] was 46 ± 4 nM.
Take `CCn1c(SCc2nc(-c3ccccc3)no2)nc2ccccc2c1=O` [Compound 9j, 2-((3-Phenyl-1,2,4-oxadiazol-5-yl)methylthio)-3-ethylquinazolin-4(3H)-one]: the melting point was in the range of 114 to 116 °C. The compound further yielded a viability at 96 h, 50 µM in series [1] of 90%. In addition, the IC50 in series [2] was 68 ± 6 nM. Further, the IC50 in series [3] came to 76 ± 7 nM. Besides, the GI50 in series [4] worked out at 70 nM. Further, the IC50 in series [5] was determined as 68 ± 6 nM. Further, the IC50 in series [6] stood at 69 ± 6 nM.
Consider `C=CCn1c(SCc2nc(-c3ccc(Cl)cc3)no2)nc2ccccc2c1=O` [Compound 9n, 2-((3-(4-Chlorophenyl)-1,2,4-oxadiazol-5-yl)methylthio)-3-allylquinazolin-4(3H)-one], for which the melting point was 115 to 117 °C. Further, the viability at 96 h, 50 µM in series [1] amounted to 91%. In series [2], the IC50 was found to be 45 ± 4 nM. For the same compound, in series [3], the IC50 is 47 ± 4 nM. In series [4], this compound registered a GI50 of 45 nM. In addition, the IC50 in series [5] turned out to be 44 ± 4 nM. In addition, in series [6], the IC50 turned out to be 43 ± 4 nM.
Take `Cc1cccc(-n2c(SCc3nc(-c4ccccc4)no3)nc3ccccc3c2=O)c1` [Compound 9g, 2-((3-Phenyl-1,2,4-oxadiazol-5-yl)methylthio)-3-m-tolylquinazolin-4(3H)-one]: the melting point was 170 to 172 °C. In series [1], this compound had a viability at 96 h, 50 µM of 90%. Further, in series [2], the IC50 is 50 ± 5 nM. In addition, the IC50 in series [3] amounted to 52 ± 5 nM. This compound showed a GI50 in series [4] of 50 nM. In addition, the IC50 in series [5] was determined as 50 ± 5 nM. Besides, the IC50 in series [6] was found to be 49 ± 4 nM.
The compound `COc1ccc(-c2noc(CSc3nc4ccccc4c(=O)n3-c3cccc(C)c3)n2)cc1` [Compound 9i, 2-((3-(4-Methoxyphenyl)-1,2,4-oxadiazol-5-yl)methylthio)-3-m-tolylquinazolin-4(3H)-one] returned a melting point of 194 to 196 °C. In series [1], this compound yielded a viability at 96 h, 50 µM of 91%. The IC50 in series [2] stood at 66 ± 6 nM. For the same compound, the half-inhibitory concentration (IC50) in series [3] was 69 ± 6 nM. The compound also gave a GI50 in series [4] of 67 nM. Besides, the IC50 in series [5] was found to be 68 ± 6 nM. Besides, the IC50 in series [6] is 65 ± 6 nM.
In the case of `C=CCn1c(SCc2nc(-c3ccc(OC)cc3)no2)nc2ccccc2c1=O` [Compound 9o, 2-((3-(4-Methoxyphenyl)-1,2,4-oxadiazol-5-yl)methylthio)-3-allylquinazolin 4(3H)-one], the melting point was 122 to 124 °C. In series [1], the viability at 96 h, 50 µM was 89%. In addition, in series [2], the IC50 worked out at 57 ± 5 nM. Further, the IC50 in series [3] came to 59 ± 5 nM. This compound also returned a GI50 in series [4] of 57 nM. In addition, the IC50 in series [5] is 57 ± 5 nM. Moreover, the IC50 in series [6] came to 56 ± 4 nM.
`C=CCn1c(SCc2nc(-c3ccccc3)no2)nc2ccccc2c1=O` [Compound 9m, 2-((3-Phenyl-1,2,4-oxadiazol-5-yl)methylthio)-3-allylquinazolin-4(3H)-one] came in with a melting point of 110 to 112 °C. The compound further displayed a viability at 96 h, 50 µM in series [1] of 92%. In addition, the IC50 in series [2] turned out to be 64 ± 6 nM. Also, the IC50 in series [3] is 65 ± 6 nM. Halving of growth in series [4] (GI50) required 63 nM. The IC50 in series [5] was 62 ± 6 nM. Further, the IC50 in series [6] came out at 62 ± 6 nM.
In turn, `Cc1ccc(-n2c(SCc3nc(-c4ccccc4)no3)nc3ccccc3c2=O)cc1` [Compound 9d, 2-((3-Phenyl-1,2,4-oxadiazol-5-yl)methylthio)-3-p-tolylquinazolin-4(3H)-one] showed a melting point of 168 to 170 °C. In series [1], this compound yielded a viability at 96 h, 50 µM of 90%. In addition, the IC50 in series [2] was 54 ± 5 nM. In addition, in series [3], the IC50 was found to be 58 ± 5 nM. Further, the GI50 in series [4] is 55 nM. Moreover, in series [5], the IC50 was 55 ± 5 nM. Moreover, in series [6], the IC50 worked out at 54 ± 4 nM.

The values are drawn from article PMC11393688, “Design and synthesis of new 1,2,4-oxadiazole/quinazoline-4-one hybrids with antiproliferative activity as multitargeted inhibitors” (Frontiers in Chemistry, 2024).
